In patent US11613556B2, “Oxysterols and methods of use thereof” (Sage Therapeutics, Inc., priority 2016, dated 2023):

The molecules below were run against glutamate-activated channels of the GRIN1/2A subtype stably transfected in HEK 293 cells (Homo sapiens (Human), UniProt Q05586+Q12879) (assay: Automated patch-clamp system (QPatch HTX), percent potentiation at 1 μM). Conditions: HEK293, 1 μM test compound, 300 μM NMDA with 8 μM glycine, HEK 293 GRIN1/2A, read-out: GluN2A PCA % potentiation at 1 μM.
Format: cell-based
Experimental: NMDA potentiation in mammalian cells which expressed NMDA receptors was assessed using the automatic patch-clamp system can be used determine the NAM activity of compounds as described below. An whole cell patch-clamp system can be used determine the PAM activity of compounds as described below.
Automated Patch-Clamp System (OPatch HTX):
In this study, HEK 293 cells stably transfected with glutamate-activated channels of the GRIN1/2A subtype will be used together with submaximal NMDA concentrations (300 μM NMDA, co-application with 8 μM Glycine) to investigate the negative allosteric modulation of the test compounds.
In general, cells will be passaged at a confluence of about 80% to […]. For electrophysiological measurements cells will be harvested at a confluence of about 80% to 90% from sterile culture flasks containing culture complete medium. Cells will be transferred as suspension in PBS to the QPatch 16X or QPatch HTX system to the centrifuge/washer directly.
Standard Laboratory Conditions: Cells will be incubated at 37° C. in a humidified atmosphere with 5% CO2 (rel. humidity about 95%).
Culture media: The cells will be continuously maintained in and passaged in sterile culture flasks containing a 1:1 mixture of Dulbecco's modified eagle medium and nutrient mixture F-12 (D-MEM/F-12 1×, liquid, with L-Glutamine) supplemented with 10% fetal bovine serum, 1% Penicillin/Streptomycin solution, and 50 μM AP-5 blocker.
Antibiotics: The complete medium as indicated above is supplemented with 100 μg/mL hygromycin, 15 μg/mL blasticidin and 1 μg/mL puromycin.
Induction of Expression: 2.5 μg/mL tetracycline is added 24 h before start of experiments.
Dose levels are in terms of test compounds, as supplied. Vehicle will be added to achieve a stock concentration of 10 mM (storage at −10° C. to −30° C.). A further stock solutions of 1.0 mM will be prepared in DMSO. Details of stock solution usage (thawing, dose formulations) will be documented in the raw data. The time period of stock solution usage will be detailed in the report.
Test Compound Concentrations
One test concentration of 1.0 μM will be tested.
All test solutions will be prepared by diluting the stock solutions with either Mg-free bath solution only or Mg-free bath solution containing NMDA (300 μM) and glycine (8.0 μM) shortly prior to the electrophysiological experiments and kept at room temperature (19° C. to 30° C.) when in use. 0.1% DMSO will be used as vehicle.
Frequency of preparation: For each test concentration, fresh solutions of test compounds will be prepared every day.
Stability of dose formulation: All preparation times will be documented in the raw data. Any observations regarding instability of test compounds will be mentioned in the raw data.
Storage of dose formulation: On the day of experimentation dose formulations will be maintained at room temperature (19° C. to 30° C.) when in use.
For preparing the experiments and for formation of the giga-ohm-seal, the following standard bath solution will be used:
Sodium Chloride: 137 mM; Potassium Chloride: 4 mM; Calcium Chloride: 1.8 mM; Magnesium Chloride: 1 mM; HEPES: 10 mM; D-Glucose: 10 mM; Cremophor: 0.02%; pH (NaOH): 7.4
The 1× bath solution will be prepared by diluting 10× bath solution without Glucose and 100× Glucose solution with water at least every 7 days. Both stock solutions have been prepared prior to the experimental start of the present study and stored at 1° C. to 9° C. (10× bath solution) or −10° C. to −30° (100× Glucose solution). The batch number(s) of the bath solution(s) used in the experiments will be documented in the raw data. When in use, the 1× bath solution will be kept at room temperature (19° C. to 30° C.). When not in use, the 1× bath solution will be stored at 1° C. to 9° C.
After the giga-seal was formed the following Mg-free bath solution will be used:
Sodium Chloride: 137 mM; Potassium Chloride: 4 mM; Calcium Chloride; 2.8 mM; HEPES: 10 mM; D-Glucose: 10 mM; Cremophor: 0.02%; pH (NaOH): 7.4 […]

Sequence of glutamate-activated channels of the GRIN1/2A subtype stably transfected in HEK 293 cells (Q12879 whole entry, looked up, other chains not shown): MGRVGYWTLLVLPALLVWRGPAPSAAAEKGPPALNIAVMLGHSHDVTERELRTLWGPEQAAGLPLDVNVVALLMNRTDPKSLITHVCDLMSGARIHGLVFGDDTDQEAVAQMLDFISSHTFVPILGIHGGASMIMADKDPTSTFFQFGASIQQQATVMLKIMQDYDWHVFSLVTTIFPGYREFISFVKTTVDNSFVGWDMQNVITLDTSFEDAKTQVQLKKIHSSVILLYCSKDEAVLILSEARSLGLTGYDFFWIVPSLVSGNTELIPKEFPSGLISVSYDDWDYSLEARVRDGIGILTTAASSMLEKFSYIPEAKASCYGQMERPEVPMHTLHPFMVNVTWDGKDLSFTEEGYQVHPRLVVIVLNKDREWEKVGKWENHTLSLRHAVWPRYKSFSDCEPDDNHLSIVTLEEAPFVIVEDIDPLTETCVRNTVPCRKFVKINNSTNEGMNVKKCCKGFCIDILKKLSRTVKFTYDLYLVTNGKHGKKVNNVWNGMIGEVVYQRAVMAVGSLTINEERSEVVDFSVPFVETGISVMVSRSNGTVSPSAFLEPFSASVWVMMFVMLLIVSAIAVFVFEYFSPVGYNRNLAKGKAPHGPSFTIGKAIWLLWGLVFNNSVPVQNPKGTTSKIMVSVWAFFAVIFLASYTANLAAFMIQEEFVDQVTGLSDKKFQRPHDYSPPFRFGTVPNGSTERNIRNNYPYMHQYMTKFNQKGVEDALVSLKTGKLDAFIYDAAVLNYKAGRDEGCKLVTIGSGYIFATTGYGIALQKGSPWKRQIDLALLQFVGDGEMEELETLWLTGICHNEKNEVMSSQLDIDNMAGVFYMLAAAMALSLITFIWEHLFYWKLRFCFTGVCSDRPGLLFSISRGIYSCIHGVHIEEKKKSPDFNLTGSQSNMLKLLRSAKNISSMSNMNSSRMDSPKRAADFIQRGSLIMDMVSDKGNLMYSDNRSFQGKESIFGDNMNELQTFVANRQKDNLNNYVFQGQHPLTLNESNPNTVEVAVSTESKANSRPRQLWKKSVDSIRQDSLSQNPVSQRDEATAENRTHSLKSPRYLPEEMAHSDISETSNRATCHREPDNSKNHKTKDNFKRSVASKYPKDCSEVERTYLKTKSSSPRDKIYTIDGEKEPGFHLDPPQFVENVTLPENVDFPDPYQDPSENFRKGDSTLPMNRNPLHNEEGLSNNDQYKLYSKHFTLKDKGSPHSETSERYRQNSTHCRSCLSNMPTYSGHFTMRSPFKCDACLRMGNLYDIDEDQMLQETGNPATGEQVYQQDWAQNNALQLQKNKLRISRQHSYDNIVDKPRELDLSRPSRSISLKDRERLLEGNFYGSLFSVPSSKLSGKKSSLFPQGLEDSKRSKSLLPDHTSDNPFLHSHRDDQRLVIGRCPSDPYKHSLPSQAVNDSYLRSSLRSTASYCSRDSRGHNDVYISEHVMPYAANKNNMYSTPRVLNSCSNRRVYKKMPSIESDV

SMILES | activation at 1 µM [%]
CC[C@]1(O)CC[C@@]2(C)C(=CC[C@H]3[C@@H]4CC[C@H]([C@H](C)[C@@H](O)CC5(C)COC5)[C@@]4(C)CC[C@@H]32)C1 [Compound 70, (3S,8S,9S,10R,13S,14S,17R)-3-ethyl-17-((2S,3S)-3-hydroxy-4-(3-methyloxetan-3-yl)butan-2-yl)-10,13-dimethyl-2,3,4,7,8,9,10,11,12,13,14,15,16,17-tetradecahydro-1H-cyclopenta[a]phenanthren-3-ol] | -40 to -10
COC[C@]1(O)CC[C@@]2(C)[C@H](CC[C@@H]3[C@@H]2CC[C@]2(C)[C@@H]([C@H](C)[C@H](O)C(F)(F)F)CC[C@@H]32)C1 [Compound 71, (3S,5R,8R,9S,10S,13S,14S,17R)-3-(methoxymethyl)-10,13-dimethyl-17-((2S,3S)-4,4,4-trifluoro-3-hydroxybutan-2-yl)hexadecahydro-1H-cyclopenta[a]phenanthren-3-ol] | -40 to -10
CC(C)CC[C@H](O)[C@@H](C)[C@H]1CC[C@H]2[C@@H]3CC[C@H]4C[C@@](C)(O)CC[C@@H]4[C@H]3CC[C@]12C [Compound 74, (3S,5S,8R,9R,10S,13S,14S,17R)-17-((2S,3S)-3-hydroxy-6-methylheptan-2-yl)-3,13-dimethylhexadecahydro-1H-cyclopenta[a]phenanthren-3-ol] | -40 to -10
CC(C)CC[C@H](O)[C@@H](C)[C@H]1CC[C@H]2[C@@H]3CC=C4C[C@@](C)(O)CC[C@@H]4[C@H]3CC[C@]12C [Compound 80, (3S,8R,9S,10R,13S,14S,17R)-17-((2S,3S)-3-hydroxy-6-methylheptan-2-yl)-3,13-dimethyl-2,3,4,7,8,9,10,11,12,13,14,15,16,17-tetradecahydro-1H-cyclopenta[a]phenanthren-3-ol] | -40 to -10
CC[C@]1(O)CC[C@@]2(C)C(=CC[C@H]3[C@@H]4CC[C@H]([C@H](C)[C@H](O)C(F)(F)F)[C@@]4(C)CC[C@@H]32)C1 [Compound 81, (3S,8S,9S,10R,13S,14S,17R)-3-ethyl-10,13-dimethyl-17-((2S,3S)-4,4,4-trifluoro-3-hydroxybutan-2-yl)-2,3,4,7,8,9,10,11,12,13,14,15,16,17-tetradecahydro-1H-cyclopenta[a]phenanthren-3-ol] | -40 to -10
CC(C)CC[C@@H](O)[C@@H](C)[C@H]1CC[C@H]2[C@@H]3CC=C4C[C@@](C)(O)CC[C@@H]4[C@H]3CC[C@]12C [Compound 83, (3S,8R,9S,10R,13S,14S,17R)-17-((2S,3R)-3-hydroxy-6-methylheptan-2-yl)-3,13-dimethyl-2,3,4,7,8,9,10,11,12,13,14,15,16,17-tetradecahydro-1H-cyclopenta[a]phenanthren-3-ol] | -40 to -10
CC(C)CC[C@@H](O)[C@@H](C)[C@H]1CC[C@H]2[C@@H]3CC[C@H]4C[C@](O)(C(F)(F)F)CC[C@]4(C)[C@H]3CC[C@]12C [Compound 85, (3S,5S,8R,9S,10S,13S,14S,17R)-17-((2S,3R)-3-hydroxy-6-methylheptan-2-yl)-10,13-dimethyl-3-(trifluoromethyl)hexadecahydro-1H-cyclopenta[a]phenanthren-3-ol] | -10 to 10
CC[C@]1(O)CC[C@@]2(C)[C@@H](CC[C@@H]3[C@@H]2CC[C@]2(C)[C@@H]([C@H](C)[C@@H](O)C4CCOCC4)CC[C@@H]32)C1 [Compound 86, (3S,5S,8R,9S,10S,13S,14S,17R)-3-ethyl-17-((1S,2S)-1-hydroxy-1-(tetrahydro-2H-pyran-4-yl)propan-2-yl)-10,13-dimethylhexadecahydro-1H-cyclopenta[a]phenanthren-3-ol] | -40 to -10
CC(C)CC[C@@H](O)[C@@H](C)[C@H]1CC[C@H]2[C@@H]3CC[C@H]4C[C@@](C)(O)CC[C@@H]4[C@H]3CC[C@]12C [Compound 88, (3S,5S,8R,9R,10S,13S,14S,17R)-17-((2S,3R)-3-hydroxy-6-methylheptan-2-yl)-3,13-dimethylhexadecahydro-1H-cyclopenta[a]phenanthren-3-ol] | -40 to -10
CC[C@]1(O)CC[C@@]2(C)[C@@H](CC[C@@H]3[C@@H]2CC[C@]2(C)[C@@H]([C@H](C)[C@H](O)C4CC4)CC[C@@H]32)C1 [Compound 90, (3S,5S,8R,9S,10S,13S,14S,17R)-17-((1R,2S)-1-cyclopropyl-1-hydroxypropan-2-yl)-3-ethyl-10,13-dimethylhexadecahydro-1H-cyclopenta[a]phenanthren-3-ol] | -10 to 10
C[C@H]([C@H](C)O)[C@H]1CC[C@H]2[C@@H]3CC[C@H]4C[C@](O)(C(F)(F)F)CC[C@]4(C)[C@H]3CC[C@]12C [Compound 91, (3S,5S,8R,9S,10S,13S,14S,17R)-17-((2S,3S)-3-hydroxybutan-2-yl)-10,13-dimethyl-3-(trifluoromethyl)hexadecahydro-1H-cyclopenta[a]phenanthren-3-ol] | -40 to -10
COC[C@]1(O)CC[C@@]2(C)C(=CC[C@H]3[C@@H]4CC[C@H]([C@H](C)[C@@H](O)C(F)(F)F)[C@@]4(C)CC[C@@H]32)C1 [Compound 95, (3S,8S,9S,10R,13S,14S,17R)-3-(methoxymethyl)-10,13-dimethyl-17-((2S,3R)-4,4,4-trifluoro-3-hydroxybutan-2-yl)-2,3,4,7,8,9,10,11,12,13,14,15,16,17-tetradecahydro-1H-cyclopenta[a]phenanthren-3-ol] | < -40
C[C@@H]([C@H]1CC[C@H]2[C@@H]3CC[C@@H]4C[C@@](C)(O)CC[C@]4(C)[C@H]3CC[C@]12C)[C@H](O)C(F)(F)F [Compound 97, (3S,5R,8R,9S,10S,13S,14S,17R)-3,10,13-trimethyl-17-((2S,3S)-4,4,4-trifluoro-3-hydroxybutan-2-yl)hexadecahydro-1H-cyclopenta[a]phenanthren-3-ol] | -40 to -10
